Experimental data as given in ChEMBL document CHEMBL3588782, “Synthesis, antiribosomal and antibacterial activity of 4-O-glycopyranosyl paromomycin aminoglycoside antibiotics” (Medchemcomm, 2014).
Values after ≈ are worked out from the molar mass of the structure shown.

What was measured:
Bacterial 70S ribosome = test: Inhibition of Mycobacterium smegmatis ribosome containing wild type ribosomal RNA A-site in rabbit reticulocyte lysates assessed as reduction in ribosome-mediated protein synthesis in presence of S-30 extracts by fire fly luciferase synthesis based cell-free translation assay; set-up: species or system Mycolicibacterium smegmatis
[1] = Inhibition of Mycobacterium smegmatis ribosome containing ribosomal RNA A-site G1491C mutant in rabbit reticulocyte lysates assessed as reduction in ribosome-mediated protein synthesis in presence of S-30 extracts by fire fly luciferase synthesis based cell-free translation assay; set-up: species or system Mycolicibacterium smegmatis
[2] = Inhibition of Mycobacterium smegmatis ribosome containing ribosomal RNA A-site G1491A mutant in rabbit reticulocyte lysates assessed as reduction in ribosome-mediated protein synthesis in presence of S-30 extracts by fire fly luciferase synthesis based cell-free translation assay; set-up: species or system Mycolicibacterium smegmatis
[3] = Inhibition of Mycobacterium smegmatis ribosome containing ribosomal RNA A-site A1408G mutant in rabbit reticulocyte lysates assessed as reduction in ribosome-mediated protein synthesis in presence of S-30 extracts by fire fly luciferase synthesis based cell-free translation assay; set-up: species or system Mycolicibacterium smegmatis
80S Ribosome = test: Inhibition of human ribosome containing eukaryotic wild type ribosomal RNA A-site in rabbit reticulocyte lysates assessed as reduction in ribosome-mediated protein synthesis in presence of S-30 extracts by fire fly luciferase synthesis based cell-free translation assay
[4] = Inhibition of human ribosome containing eukaryotic ribosomal RNA A-site A1555G mutant in rabbit reticulocyte lysates assessed as reduction in ribosome-mediated protein synthesis in presence of S-30 extracts by fire fly luciferase synthesis based cell-free translation assay
[5] = Inhibition of human ribosome containing eukaryotic ribosomal RNA A-site Cyt14 allele in rabbit reticulocyte lysates assessed as reduction in ribosome-mediated protein synthesis in presence of S-30 extracts by fire fly luciferase synthesis based cell-free translation assay
Ribosome = test: Inhibition of ribosome-mediated protein synthesis in rabbit reticulocyte lysates in presence of S-30 extracts by fire fly luciferase synthesis based cell-free translation assay; set-up: species or system Oryctolagus cuniculus
Staphylococcus aureus [6] = test: Antibacterial activity against methicillin-resistant Staphylococcus aureus isolate AG 038 by broth microdilution assay; assay type: functional
Staphylococcus aureus [7] = test: Antibacterial activity against methicillin-resistant Staphylococcus aureus isolate AG 039 by broth microdilution assay; assay type: functional
Staphylococcus aureus [8] = test: Antibacterial activity against methicillin-resistant Staphylococcus aureus isolate AG 042 by broth microdilution assay; assay type: functional
Staphylococcus aureus [9] = test: Antibacterial activity against methicillin-resistant Staphylococcus aureus isolate AG 044 by broth microdilution assay; assay type: functional
Escherichia coli [10] = test: Antibacterial activity against Escherichia coli isolate 006 by broth microdilution assay; assay type: functional
Escherichia coli [11] = test: Antibacterial activity against Escherichia coli isolate 001 by broth microdilution assay; assay type: functional
Escherichia coli [12] = test: Antibacterial activity against Escherichia coli isolate 055 by broth microdilution assay; assay type: functional
Escherichia coli [13] = test: Antibacterial activity against Escherichia coli isolate 003 by broth microdilution assay; assay type: functional

Compound | IC50 (Bacterial 70S ribosome) [nM] | IC50 [1] [µg/mL] | IC50 [2] [µg/mL] | IC50 [3] [µg/mL] | IC50 (80S Ribosome) [µM] | IC50 [4] [µg/mL] | IC50 [5] [µg/mL] | IC50 (Ribosome) [µg/mL] | MIC (Staphylococcus aureus [6]) [µg/mL] | MIC (Staphylococcus aureus [7]) [µg/mL] | MIC (Staphylococcus aureus [8]) [µg/mL] | MIC (Staphylococcus aureus [9]) [µg/mL] | MIC (Escherichia coli [10]) [µg/mL] | MIC (Escherichia coli [11]) [µg/mL] | MIC (Escherichia coli [12]) [µg/mL] | MIC (Escherichia coli [13]) [µg/mL]
NC[C@@H]1O[C@H](O[C@H]2[C@@H](O)[C@H](O[C@@H]3[C@@H](O)[C@H](N)C[C@H](N)[C@H]3O[C@H]3O[C@H](CO)[C@@H](OCO[C@H]4O[C@H](CO)[C@@H](O)[C@H](O)[C@H]4O)[C@H](O)[C@H]3N)O[C@@H]2CO)[C@H](N)[C@@H](O)[C@@H]1O | 384 | 200.3 | 33.45 | 17.16 | 29.8 | 96.03 | 130.61 | 43.14 | 64 (≈ 79.2 µM) | ≥ 128 | 128 (≈ 158 µM) | 64 (≈ 79.2 µM) | 64 (≈ 79.2 µM) | ≥ 128 | ≥ 128 | ≥ 128
NC[C@@H]1O[C@H](O[C@H]2[C@@H](O)[C@H](O[C@@H]3[C@@H](O)[C@H](N)C[C@H](N)[C@H]3O[C@H]3O[C@H](CO)[C@@H](O[C@@H]4O[C@H](CO)[C@@H](N)[C@H](O)[C@H]4O)[C@H](O)[C@H]3N)O[C@@H]2CO)[C@H](N)[C@@H](O)[C@@H]1O | 373 | 32.03 | 4.87 | 2.39 | 9.81 | 17.38 | 21.43 | 32.41 | 32 (≈ 41.2 µM) | > 64 | > 64 | 32 (≈ 41.2 µM) | 16 (≈ 20.6 µM) | > 64 | > 64 | > 64
CN[C@@H]1[C@@H](O[C@H]2O[C@H](CO)[C@@H](N)[C@H](O)[C@H]2O)O[C@H]2C[C@@H](N)[C@@H](O[C@H]3[C@H](O)[C@@H](O)[C@H](N)C[C@@H]3N)O[C@@H]2[C@@H]1O [APRAMYCIN] | 111 | 31.21 | 5 | 128.89 | 108 | 26.06 | 49.17 | 23.77 | 8 (≈ 14.8 µM) | 8 (≈ 14.8 µM) | 8 (≈ 14.8 µM) | 16 (≈ 29.7 µM) | 4 (≈ 7.41 µM) | 16 (≈ 29.7 µM) | 8 (≈ 14.8 µM) | 8 (≈ 14.8 µM)
NC[C@@H]1O[C@H](O[C@H]2[C@@H](O)[C@H](O[C@@H]3[C@@H](O)[C@H](N)C[C@H](N)[C@H]3O[C@H]3O[C@@H]4COC(CCc5ccccc5)O[C@H]4[C@H](O)[C@H]3N)O[C@@H]2CO)[C@H](N)[C@@H](O)[C@@H]1O (some centres not stated) | 137 | 124.07 | 43.01 | 3.81 | 452 | 126.88 | 183.86 |  | 4 (≈ 5.47 µM) | 8 (≈ 10.9 µM) | 4 (≈ 5.47 µM) | 16 (≈ 21.9 µM) | 16 (≈ 21.9 µM) | 32 (≈ 43.7 µM) | 32 (≈ 43.7 µM) | 32 (≈ 43.7 µM)
NC[C@@H]1O[C@H](O[C@H]2[C@@H](O)[C@H](O[C@@H]3[C@@H](O)[C@H](N)C[C@H](N)[C@H]3O[C@H]3O[C@H](CO)[C@@H](O[C@@H]4O[C@H](CO)[C@@H](O)[C@H](O)[C@H]4O)[C@H](O)[C@H]3N)O[C@@H]2CO)[C@H](N)[C@@H](O)[C@@H]1O | 476 | 294.83 | 15.5 | 9.32 | 76 | 83.64 | 117.53 | 60.75 | 128 (≈ 165 µM) | ≥ 128 | > 128 | 128 (≈ 165 µM) | 32 (≈ 41.1 µM) | > 128 | > 128 | > 128
NC[C@@H]1O[C@H](O[C@H]2[C@@H](O)[C@H](O[C@@H]3[C@@H](O)[C@H](N)C[C@H](N)[C@H]3O[C@H]3O[C@H](CO)[C@@H](O[C@H]4O[C@H](CO)[C@H](O)[C@H](O)[C@H]4O)[C@H](O)[C@H]3N)O[C@@H]2CO)[C@H](N)[C@@H](O)[C@@H]1O | 707 | 118.67 | 18.68 | 12.01 | 2.87 | 14.95 | 35.63 | 23.75 | 64 (≈ 82.3 µM) | 128 (≈ 165 µM) | 64 (≈ 82.3 µM) | 64 (≈ 82.3 µM) | 32 (≈ 41.1 µM) | > 128 | > 128 | > 128
NC[C@@H]1O[C@H](O[C@H]2[C@@H](O)[C@H](O[C@@H]3[C@@H](O)[C@H](N)C[C@H](N)[C@H]3O[C@H]3O[C@H](CO)[C@@H](O[C@H]4O[C@H](CO)[C@@H](N)[C@H](O)[C@H]4O)[C@H](O)[C@H]3N)O[C@@H]2CO)[C@H](N)[C@@H](O)[C@@H]1O | 154 | 32.79 | 6.07 | 7.06 | 0.438 | 3.62 | 18.95 | 19.59 | 4 (≈ 5.15 µM) | 8 (≈ 10.3 µM) | 8 (≈ 10.3 µM) | 4 (≈ 5.15 µM) | 2 (≈ 2.57 µM) | 32 (≈ 41.2 µM) | 32 (≈ 41.2 µM) | 16 (≈ 20.6 µM)
NC[C@@H]1O[C@H](O[C@H]2[C@@H](O)[C@H](O[C@@H]3[C@@H](O)[C@H](N)C[C@H](N)[C@H]3O[C@H]3O[C@H](CO)[C@@H](O)[C@H](O)[C@H]3N)O[C@@H]2CO)[C@H](N)[C@@H](O)[C@@H]1O [PAROMOMYCIN] | 48.7 | 10.42 | 0.57 | 0.26 | 82.1 | 5.83 | 10.39 | 9.78 | 4 (≈ 6.5 µM) | > 256 | > 256 | 4 (≈ 6.5 µM) | 2 (≈ 3.25 µM) | 16 (≈ 26 µM) | 8 (≈ 13 µM) | 8 (≈ 13 µM)
NC[C@@H]1O[C@H](O[C@H]2[C@@H](O)[C@H](O[C@@H]3[C@@H](O)[C@H](N)C[C@H](N)[C@H]3O[C@H]3O[C@H](CO)[C@@H](OCCCc4ccccc4)[C@H](O)[C@H]3N)O[C@@H]2CO)[C@H](N)[C@@H](O)[C@@H]1O | 273 | 210.73 | 51.26 | 14.52 | 67.9 | 105.68 | 268.57 |  | 2 (≈ 2.73 µM) | 8 (≈ 10.9 µM) | 4 (≈ 5.45 µM) | 4 (≈ 5.45 µM) | 8 (≈ 10.9 µM) | 16 (≈ 21.8 µM) | 16 (≈ 21.8 µM) | 8 (≈ 10.9 µM)
